The record followed here is patent US9156872B2, “2′-azido substituted nucleoside derivatives and methods of use thereof for the treatment of viral diseases” (priority 2011, dated 2015).

Like-named read-outs stand apart in the source and are kept apart here.

The assay has as its system HCV replicon cells. Kind of assay: Cell-based HCV replicon assay (replicon RNA by Taqman real time PCR). The conditions noted are these: read-out: 1b EC50. Background: In antiviral work, replicon cells carry a viral genome segment that copies itself.

As a reminder, the EC50 is the concentration at which the effect is half-maximal. Consider `COc1nc(N)nc2c1ncn2[C@@H]1O[C@H](COP(=O)(N[C@@H](C)C(=O)OC(C)C)Oc2ccc(F)cc2)[C@@H](O)[C@@]1(C)N=[N+]=[N-]` (single isomer, unassigned) [Compound 269], for which the concentration for a half-maximal effect (EC50) (Hepatitis C virus, 72 h) worked out at 0.7 µM.
For the compound `CCOC(=O)[C@H](C)NP(=O)(OC[C@H]1O[C@@H](n2cnc3c(OC)nc(N)nc32)[C@](C)(N=[N+]=[N-])[C@@H]1O)Oc1ccc(F)cc1` (single isomer, unassigned) [Compound 270], the EC50 came out at 1.8 µM.
As for `CCOC(=O)[C@H](C)NP(=O)(OC[C@H]1O[C@@H](n2cnc3c(OC)nc(N)nc32)[C@](C)(N=[N+]=[N-])[C@@H]1O)Oc1ccc(F)cc1` (single isomer, unassigned) [Compound 271], the 50% effective concentration (EC50) was found to be 4.4 µM.
As for `COc1nc(N)nc2c1ncn2[C@@H]1O[C@H](COP(=O)(N[C@@H](C)C(=O)OC2CCCCC2)Oc2ccc(Cl)cc2)[C@@H](O)[C@@]1(C)N=[N+]=[N-]` (single isomer, unassigned) [Compound 272], under “Hepatitis C virus, 72 h”, the EC50 was determined as 3.7 µM.
Turning to `COc1nc(N)nc2c1ncn2[C@@H]1O[C@H](COP(=O)(N[C@@H](C)C(=O)OC2CCCCC2)Oc2ccc(Cl)cc2)[C@@H](O)[C@@]1(C)N=[N+]=[N-]` (single isomer, unassigned) [Compound 273], the concentration for a half-maximal effect (EC50) amounted to 2.8 µM.
On the same count and under the same terms, under `COc1nc(N)nc2c1ncn2[C@@H]1O[C@H](COP(=O)(N[C@@H](C)C(=O)OC2CCCCC2)Oc2ccccc2)[C@@H](O)[C@@]1(C)N=[N+]=[N-]` (single isomer, unassigned) [Compound 274] stands 8.7 µM; under `COc1nc(N)nc2c1ncn2[C@@H]1O[C@H](COP(=O)(N[C@@H](C)C(=O)OC2CCCCC2)Oc2ccccc2)[C@@H](O)[C@@]1(C)N=[N+]=[N-]` (single isomer, unassigned) [Compound 275], 1.5 µM.
Regarding `COc1nc(N)nc2c1ncn2[C@@H]1O[C@H](COP(=O)(N[C@@H](C)C(=O)OCC(C)C)Oc2ccccc2)C(O)[C@@]1(C)N=[N+]=[N-]` (single isomer, unassigned) [Compound 276], where the note is “Hepatitis C virus, 72 h”, the concentration giving a half-maximal response (EC50) was 2.7 µM.
With `COc1nc(N)nc2c1ncn2[C@@H]1O[C@H](COP(=O)(N[C@@H](C)C(=O)OCC(C)C)Oc2ccccc2)C(O)[C@@]1(C)N=[N+]=[N-]` (single isomer, unassigned) [Compound 277], the EC50 is 2.7 µM.
`COc1nc(N)nc2c1ncn2[C@@H]1O[C@H](COP(=O)(N[C@@H](C)C(=O)OCc2ccccc2)Oc2ccccc2)[C@@H](O)[C@@]1(C)N=[N+]=[N-]` (single isomer, unassigned) [Compound 278]: the 50% effective concentration (EC50) worked out at 7.3 µM.
Still for that read-out and setting: the figure for `COc1nc(N)nc2c1ncn2[C@@H]1O[C@H](COP(=O)(N[C@@H](C)C(=O)OCc2ccccc2)Oc2ccccc2)[C@@H](O)[C@@]1(C)N=[N+]=[N-]` (single isomer, unassigned) [Compound 279] is 1 µM; for `COc1nc(N)nc2c1ncn2[C@@H]1O[C@H](COP(=O)(N[C@@H](C)C(=O)OC(C)C)Oc2ccccc2Cl)[C@@H](O)[C@@]1(C)N=[N+]=[N-]` (single isomer, unassigned) [Compound 280] it is 5 µM.
Take `COc1nc(N)nc2c1ncn2[C@@H]1O[C@H](COP(=O)(N[C@@H](C)C(=O)OC(C)C)Oc2ccccc2Cl)[C@@H](O)[C@@]1(C)N=[N+]=[N-]` (single isomer, unassigned) [Compound 281]: the EC50 is 12 µM.
As for `COc1nc(N)nc2c1ncn2[C@@H]1O[C@H](COP(=O)(N[C@@H](C)C(=O)OC(C)C)Oc2ccc(Cl)c(Cl)c2)[C@@H](O)[C@@]1(C)N=[N+]=[N-]` (single isomer, unassigned) [Compound 282], where the note is “Hepatitis C virus, 72 h”, the EC50 was 5 µM.
As to `COc1nc(N)nc2c1ncn2[C@@H]1O[C@H](COP(=O)(N[C@@H](C)C(=O)OC(C)C)Oc2ccc(Cl)c(Cl)c2)[C@@H](O)[C@@]1(C)N=[N+]=[N-]` (single isomer, unassigned) [Compound 283], the half-maximal effective concentration (EC50) stood at 8.4 µM.
With `CCCOC(=O)[C@H](C)NP(=O)(OC[C@H]1O[C@@H](n2cnc3c(OC)nc(N)nc32)[C@](C)(N=[N+]=[N-])C1O)Oc1ccccc1` (single isomer, unassigned) [Compound 287], for the setting “Hepatitis C virus, 72 h”, the EC50 was found to be 0.9 µM.
Regarding `CCCOC(=O)[C@H](C)NP(=O)(OC[C@H]1O[C@@H](n2cnc3c(OC)nc(N)nc32)[C@](C)(N=[N+]=[N-])C1O)Oc1ccccc1` (single isomer, unassigned) [Compound 288], the EC50 is 0.9 µM.
The same measure, in the same setting: under `CCOC(=O)[C@H](C)NP(=O)(OC[C@H]1O[C@@H](n2cnc3c(OC)nc(N)nc32)[C@](C)(N=[N+]=[N-])[C@@H]1O)Oc1ccc(Cl)cc1` (single isomer, unassigned) [Compound 289] stands 0.7 µM; under `CCOC(=O)[C@H](C)NP(=O)(OC[C@H]1O[C@@H](n2cnc3c(OC)nc(N)nc32)[C@](C)(N=[N+]=[N-])[C@@H]1O)Oc1ccc(Cl)cc1` (single isomer, unassigned) [Compound 290], 0.8 µM.
Still for that read-out and setting: under `COc1nc(N)nc2c1ncn2[C@@H]1O[C@H](COP(=O)(N[C@@H](C)C(=O)OCC(C)(C)C)Oc2ccccc2)C(O)[C@@]1(C)N=[N+]=[N-]` (single isomer, unassigned) [Compound 291] stands 2.4 µM; under `COc1nc(N)nc2c1ncn2[C@@H]1O[C@H](COP(=O)(N[C@@H](C)C(=O)OCC(C)(C)C)Oc2ccccc2)C(O)[C@@]1(C)N=[N+]=[N-]` (single isomer, unassigned) [Compound 292], 0.4 µM.
Take `COc1nc(N)nc2c1ncn2[C@@H]1O[C@H](COP(=O)(N[C@@H](C)C(=O)OC(C)C)Oc2ccc(Cl)cc2)[C@@H](O)[C@@]1(C)N=[N+]=[N-]` (single isomer, unassigned) [Compound 293]: the EC50 (Hepatitis C virus, 72 h) was found to be 5.7 µM.
On to `COc1nc(N)nc2c1ncn2[C@@H]1O[C@H](COP(=O)(N[C@@H](C)C(=O)OC(C)C)Oc2ccc(Cl)cc2)[C@@H](O)[C@@]1(C)N=[N+]=[N-]` (single isomer, unassigned) [Compound 294], for which the EC50 amounted to 3.4 µM.
Regarding `COc1nc(N)nc2c1ncn2[C@@H]1O[C@H](COP(=O)(N[C@@H](C)C(=O)OCC(C)C)Oc2ccc(Cl)cc2)[C@@H](O)[C@@]1(C)N=[N+]=[N-]` (single isomer, unassigned) [Compound 295], the EC50 (Hepatitis C virus, 72 h) stood at 0.2 µM.
With `COc1nc(N)nc2c1ncn2[C@@H]1O[C@H](COP(=O)(N[C@@H](C)C(=O)OCC(C)C)Oc2ccc(Cl)cc2)[C@@H](O)[C@@]1(C)N=[N+]=[N-]` (single isomer, unassigned) [Compound 296], the concentration for a half-maximal effect (EC50) was 0.1 µM.
For the compound `CCCCOC(=O)[C@H](C)NP(=O)(OC[C@H]1O[C@@H](n2cnc3c(OC)nc(N)nc32)[C@](C)(N=[N+]=[N-])C1O)Oc1cccc2ccccc12` (single isomer, unassigned) [Compound 297], for the setting “Hepatitis C virus, 72 h”, the EC50 is 0.1 µM.
As for `CCCCOC(=O)[C@H](C)NP(=O)(OC[C@H]1O[C@@H](n2cnc3c(OC)nc(N)nc32)[C@](C)(N=[N+]=[N-])C1O)Oc1cccc2ccccc12` (single isomer, unassigned) [Compound 298], the concentration for a half-maximal effect (EC50) worked out at 0.1 µM.
Still for that read-out and setting: under `C[C@H](NP(=O)(OC[C@H]1O[C@@H](n2ccc(=O)[nH]c2=O)[C@](C)(N=[N+]=[N-])[C@@H]1O)Oc1ccccc1)C(=O)OCc1ccccc1` (single isomer, unassigned) [Compound 300] stands 29 µM; under `C[C@H](NP(=O)(OC[C@H]1O[C@@H](n2ccc(=O)[nH]c2=O)[C@](C)(N=[N+]=[N-])[C@@H]1O)Oc1ccccc1)C(=O)OCc1ccccc1` (single isomer, unassigned) [Compound 301], 2.7 µM.
As for `C[C@H](NP(=O)(OC[C@H]1O[C@@H](n2ccc(=O)[nH]c2=O)[C@](C)(N=[N+]=[N-])[C@@H]1O)Oc1ccccc1)C(=O)O[C@H](C)c1ccccc1` (single isomer, unassigned) [Compound 302], the EC50 (Hepatitis C virus, 72 h) stood at 24.9 µM.
With `C[C@H](NP(=O)(OC[C@H]1O[C@@H](n2ccc(=O)[nH]c2=O)[C@](C)(N=[N+]=[N-])[C@@H]1O)Oc1ccccc1)C(=O)O[C@H](C)c1ccccc1` (single isomer, unassigned) [Compound 303], the EC50 is 46.9 µM.
Turning to `CCOc1nc(N)nc2c1ncn2[C@@H]1O[C@H](COP(=O)(N[C@@H](C)C(=O)OC)Oc2ccccc2Cl)[C@@H](O)[C@@]1(C)N=[N+]=[N-]` (single isomer, unassigned) [Compound 309], the half-maximal effective concentration (EC50) (Hepatitis C virus, 72 h) was determined as 0.57 µM.
As to `CCOc1nc(N)nc2c1ncn2[C@@H]1O[C@H](COP(=O)(N[C@@H](C)C(=O)OC)Oc2ccccc2Cl)[C@@H](O)[C@@]1(C)N=[N+]=[N-]` (single isomer, unassigned) [Compound 310], the half-maximal effective concentration (EC50) was 0.93 µM.
On the same count and under the same terms, under `CCOc1nc(N)nc2c1ncn2[C@@H]1O[C@H](COP(=O)(N[C@@H](C)C(=O)OC)Oc2ccc(Cl)cc2)[C@@H](O)[C@@]1(C)N=[N+]=[N-]` (single isomer, unassigned) [Compound 311] stands 0.9 µM; under `CCOc1nc(N)nc2c1ncn2[C@@H]1O[C@H](COP(=O)(N[C@@H](C)C(=O)OC)Oc2ccc(Cl)cc2)[C@@H](O)[C@@]1(C)N=[N+]=[N-]` (single isomer, unassigned) [Compound 312], 2.2 µM.
As for `CCOc1nc(N)nc2c1ncn2[C@@H]1O[C@H](COP(=O)(N[C@@H](C)C(=O)OC2CCCCC2)Oc2ccc(Cl)cc2)[C@@H](O)[C@@]1(C)N=[N+]=[N-]` (single isomer, unassigned) [Compound 313], the EC50 (Hepatitis C virus, 72 h) came to 0.66 µM.
As for `CCOc1nc(N)nc2c1ncn2[C@@H]1O[C@H](COP(=O)(N[C@@H](C)C(=O)OC2CCCCC2)Oc2ccc(Cl)cc2)[C@@H](O)[C@@]1(C)N=[N+]=[N-]` (single isomer, unassigned) [Compound 314], the EC50 came to 1.3 µM.
The same measure, in the same setting: the figure for `CCOc1nc(N)nc2c1ncn2[C@@H]1O[C@H](COP(=O)(N[C@@H](C)C(=O)OC(C)C)Oc2ccccc2Cl)[C@@H](O)[C@@]1(C)N=[N+]=[N-]` (single isomer, unassigned) [Compound 315] is 9.2 µM; for `CCOc1nc(N)nc2c1ncn2[C@@H]1O[C@H](COP(=O)(N[C@@H](C)C(=O)OC(C)C)Oc2ccccc2Cl)[C@@H](O)[C@@]1(C)N=[N+]=[N-]` (single isomer, unassigned) [Compound 316] it is 27.9 µM.
